Data on one compound can be found in PMC3892053, “Pharmacokinetic/pharmacodynamic modeling for the determination of a cimicoxib dosing regimen in the dog” (BMC Veterinary Research, 2013).

This series can be described thus: Plasma pharmacokinetics after single oral administration in beagle dogs (Study 1). Type of series: in vivo, dog. The settings on record: mean ± SD; for half-life: beagle, dog, plasma, po, 2 mg/kg, read-out: terminal half-life (converted). The protocol:
The study was conducted according to a classical 2×2 crossover design. Briefly, in period one, half of the dog (3 males and 3 females), received a single oral dose of cimicoxib (approximately 2 mg/kg, one 20 mg capsules – Vetoquinol Lure france) 26.5 h after the induction of kaolin inflammation on the left paw; the other half dogs received a placebo treatment at the same time. In period 2, treatments were crossed over for each dog and inflammation was induced on the right paw. A wash-out delay of at least 5 weeks was applied between the two periods. The treatment (cimicoxib or placebo) was blinded to the investigators.
Blood samples (5 mL, heparinized tubes) were obtained from the jugular vein by direct puncture just before inflammation to perform a biochemical checkup of the animals at the beginning of the experiment. Time 0 was defined as the time of treatment administration. Blood samples (5 mL, heparinized tubes) were collected at time 0 (just before cimicoxib or placebo administration) and then at times 30, 60, 90 min, and, 4, 6, 9, 15, 30 and 48 hours post-treatment. Tubes were centrifuged at 3000 G and plasma samples were stored at -20°C.
Plasma samples were analyzed by a High Performance Liquid Chromatography (HPLC) method using ultraviolet (UV) detection. Briefly, an internal standard (UR-8877) and cimicoxib (UR-8880) were extracted from plasma by a solid liquid (methanol) extraction process using HLB Oasis cartridges (Waters). The extraction yield was about 90%. The HPLC apparatus consists of a pump system equipped with an automatic injector and an UV detector (242 nm). […] The validated limit of quantification was 0.01 μg/mL.
Pharmacokinetic and PK/PD modeling were performed by least-squares regression analysis using WinNonlin Professional software (WinNonlin® software, version 4.0.1, Pharsight Corporation, Mountain View, Ca, USA). […] The number of exponential (2 or 3) terms needed to obtain the best fit for each data set was determined by the Akaike’s information criteria and by inspecting the plot of residuals. […]

The structures appear in SMILES notation. Where two headings read alike, the source gives them in different places.

Consider `COc1ccc(-c2c(Cl)ncn2-c2ccc(S(N)(=O)=O)cc2)cc1F` [cimicoxib], for which the half-life (EM beagle dogs (n = 8)) is 4.6 ± 2.6 h and the half-life (PM beagle dogs (n = 4)) was 8 ± 0.6 h. For the setting “oral 2 mg/kg, EM beagle dogs (n = 8)”, this compound registered a terminal half-life of 2.9 ± 0.9 h.
